Reference: the supplement of paper PMC10307832

How the values were obtained:
Experiment in all cases: relative viability (nuclei count vs DMSO), 5 days (fraction); higher = more cells survive
[1] = compound: O=C(NC1CCNCC1)c1n[nH]cc1NC(=O)c1c(Cl)cccc1Cl [AT-7519] + O=C(CCCCCCC(=O)Nc1ccccc1)NO [Vorinostat] (partner 1 µM)
Outline: (§1)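 After 5 days of treatment, lung cancer cells in 1536-well plates were fixed and stained in a single step (final 0.05% Triton X-100, 1% formaldehyde, 1 ug/ml Hoechst) and their nuclei counted on 4× images. Treatment had been applied by pin tool the day after seeding as one drug alone or as a fixed anchor-drug dose with five library-drug doses (not always all listed) in √10 steps. Relative viability is the nuclei count of treated wells divided by that of vehicle wells, and values are medians of duplicate plates.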

[2] = compound: O=C(NC1CCNCC1)c1n[nH]cc1NC(=O)c1c(Cl)cccc1Cl [AT-7519] + COc1cccc2cc(-c3nc([C@H]4CC[C@H](C(=O)O)CC4)n4ncnc(N)c34)[nH]c12 [OSI-027] (partner 0.5 µM)
Outline: as §1

[3] = compound: O=C(NC1CCNCC1)c1n[nH]cc1NC(=O)c1c(Cl)cccc1Cl [AT-7519] + C[C@]1(O)C[C@@H](c2nc(-c3ccc4ccc(-c5ccccc5)nc4c3)c3c(N)nccn32)C1 [Linsitinib] (partner 1 µM)
Outline: as §1

[4] = compound: O=C(NC1CCNCC1)c1n[nH]cc1NC(=O)c1c(Cl)cccc1Cl [AT-7519] + Cc1nc(NC(=O)N2CCC[C@H]2C(N)=O)sc1-c1ccnc(C(C)(C)C(F)(F)F)c1 [Alpelisib] (partner 2 µM)
Outline: as §1

Cell Line	relative viability ([1]; first compound 0.01 µM)	relative viability ([1]; first compound 0.03162 µM)	relative viability ([1]; first compound 0.3162 µM)	relative viability ([1]; first compound 1 µM)	relative viability ([2]; first compound 0.01 µM)	relative viability ([2]; first compound 0.03162 µM)	relative viability ([2]; first compound 0.3162 µM)	relative viability ([2]; first compound 1 µM)	relative viability ([3]; first compound 0.01 µM)	relative viability ([3]; first compound 0.03162 µM)	relative viability ([3]; first compound 0.3162 µM)	relative viability ([3]; first compound 1 µM)	relative viability ([4]; first compound 0.01 µM)	relative viability ([4]; first compound 0.03162 µM)	relative viability ([4]; first compound 0.3162 µM)	relative viability ([4]; first compound 1 µM)
NCI-H1975	0.805	0.679	0.624	0.27	0.827	0.778	0.503	0.191	0.917	0.795	0.746	0.172	0.63	0.658	0.381	0.152
NCI-H1651	0.606	0.505	0.56	0.643	0.764	0.734	0.598	0.59	1.16	0.963	0.917	0.886	1.03	0.956	0.811	0.836
NCI-H441	0.838	0.834	0.796	0.693	0.679	0.603	0.582	0.408	0.553	0.482	0.487	0.395	0.685	0.706	0.617	0.299
LCLC-103H	0.848	0.774	0.768	0.814	0.455	0.479	0.46	0.456	0.955	1.04	1.1	1.13	0.956	0.908	0.976	0.952
LCLC-97TM1	0.955	0.703	0.526	0.379	0.566	0.616	0.422	0.21	0.189	0.155	0.17	0.151	0.29	0.195	0.254	0.162
NCI-H727	1.17	1.08	1.11	0.794	0.68	0.632	0.517	0.408	0.287	0.309	0.163	0.167	0.649	0.486	0.546	0.226
NCI-H1355	0.65	0.624	0.661	0.598	0.407	0.471	0.374	0.374	0.795	0.737	0.79	0.722	0.813	0.805	0.884	0.547
HOP-62	0.555	0.608	0.682	0.565	0.857	0.675	0.846	0.809	0.93	0.859	0.682	1.05	1.19	0.965	0.936	0.668
NCI-H2085	0.783	0.78	0.74	0.929	0.739	0.662	0.626	0.651	0.904	0.857	0.726	0.637	0.899	0.926	0.941	0.656
